Results: patent publication US9695155B2, “Herbicidal substituted pyrimidinyloxy benzene compounds” (E. I. DU PONT DE NEMOURS AND COMPANY, priority 2013, dated 2017)

Key:
giant foxtail [1] = assay: Test A preemergence; type: in vivo, Setaria faberii; settings: for Foxtail, Giant plant response rating: 0 to 100 scale, 0 no effect, 100 complete control, approx. 10 days
How it was run: (§1)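 Greenhouse pot test, loam/sand soil. Formulation: non-phytotoxic solvent mix plus surfactant. Pre: directed spray onto soil after sowing. Post: plants at 1–2 leaf, 2–10 cm. Rated visually vs untreated controls at ~10 d, 0 (no effect) to 100 (complete control).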

large (Lg) crabgrass [2] = assay: Test A postemergence; type: in vivo, Digitaria sanguinalis
How it was run: as §1

giant foxtail [3] = assay: Test C postemergence; type: in vivo, Setaria faberii
How it was run: (§2)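 Seeds are planted in blended loam soil and sand and treated preemergence, while seedlings in a peat moss/vermiculite medium receive postemergence sprays at 2 to 18 cm height. All plants stay in the greenhouse for 13 to 15 days before visual comparison with controls on a 0–100 scale.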

johnsongrass [4] = assay: Test C postemergence; type: in vivo, Sorghum halepense
How it was run: as §2

yellow nutsedge [5] = assay: Test C postemergence; type: in vivo, Cyperus esculentus; settings: for Plant response rating (0 to 100), Nutsedge, Yellow: postemergence; for Plant response rating, Nutsedge, Yellow: Postemergence, scale 0 to 100 (0 no effect, 100 complete control)
How it was run: as §2

soybean = assay: Test C postemergence; type: in vivo, Glycine max; settings: for Plant response rating, Soybean: scale 0 to 100 (0 no effect, 100 complete control)
How it was run: as §2

waterhemp = assay: Test C postemergence; type: in vivo, Amaranthus rudis; settings: for Plant response rating, Waterhemp: scale 0 to 100 (0 no effect, 100 complete control)
Text: Seeds of plant species selected from blackgrass (Alopecurus myosuroides), Italian ryegrass (Lolium multiflorum), wheat, winter (winter wheat, Triticum aestivum), galium (catchweed bedstraw, Galium aparine), corn (Zea mays), large (Lg) crabgrass (Digitaria sanguinalis), giant foxtail (Setaria faberii), johnsongrass (Sorghum halepense), lambsquarters (Chenopodium album), morningglory (Ipomoea coccinea), yellow nutsedge (Cyperus esculentus), pigweed (Amaranthus retroflexus), ragweed (common ragweed, Ambrosia elatior), soybean (Glycine max), barnyardgrass (Echinochloa crus-galli), oilseed rape (Brassica napus), waterhemp (common waterhemp, Amaranthus rudis), kochia (Kochia scoparia), wild oat (Avena fatua), surinam grass (Brachiaria decumbens), foxtail, green (green foxtail, Setaria viridis), goosegrass (Eleusine indica), bromegrass, downy (downy bromegrass, Bromus tectorum), nightshade (eastern black nightshade, Solanum ptycanthum), cocklebur (common cocklebur, Xanthium strumarium), cupgrass, woolly (woolly cupgrass, Eriochloa villosa), bermudagrass (Cynodon dactylon), sunflower, (common oilseed sunflower, Helianthus annuus), Russian thistle (Salsola kali), and velvetleaf (Abutilon theophrasti) were planted into a blend of loam soil and sand and treated preemergence with test chemicals formulated in a non-phytotoxic solvent mixture which included a surfactant.
At the same time, plants selected from these crop and weed species and also barley, winter (winter barley, Hordeum vulgare), windgrass (Apera spica-venti), chickweed (common chickweed, Stellaria media), deadnettle (henbit deadnettle, Lamium amplexicaule), and canarygrass (littleseed canarygrass, Phalaris minor) were planted in pots containing Redi-Earth® planting medium (Scotts Company, 14111 Scottslawn Road, Marysville, Ohio 43041) comprising spaghnum peat moss, vermiculite, wetting agent and starter nutrients and treated with postemergence applications of test chemicals formulated in the same manner. Plants ranged in height from 2 to 18 cm (1- to 4-leaf stage) for postemergence treatments. Treated plants and controls were maintained in a greenhouse for 13 to 15 days, after which time all species were compared to controls and visually evaluated. Plant response ratings, summarized in Table C, are based on a scale of 0 to 100 where 0 is no effect and 100 is complete control. A dash (-) response means no test result.

chickweed = assay: Test C postemergence; type: in vivo, Stellaria media
How it was run: as §2

galium = assay: Test C preemergence; type: in vivo, Galium aparine; settings: for Galium plant response rating: preemergence
How it was run: as §2

large (Lg) crabgrass [6] = assay: Test C preemergence; type: in vivo, Digitaria sanguinalis; settings: for Crabgrass, Large plant response rating: preemergence
How it was run: as §2

giant foxtail [7] = assay: Test C preemergence; type: in vivo, Setaria faberii; settings: for Foxtail, Giant plant response rating: preemergence
How it was run: as §2

johnsongrass [8] = assay: Test C preemergence; type: in vivo, Sorghum halepense; settings: for Johnsongrass plant response rating: preemergence
How it was run: as §2

lambsquarters = assay: Test C preemergence; type: in vivo, Chenopodium album; settings: for Lambsquarters plant response rating: preemergence
How it was run: as §2

yellow nutsedge [9] = assay: Test C preemergence; type: in vivo, Cyperus esculentus; settings: for Nutsedge, Yellow plant response rating: preemergence
How it was run: as §2

[10] = 125 g ai/ha, 0 to 100 scale where 0 is no effect and 100 is complete control
[11] = Postemergence, 31 g ai/ha, scale 0 to 100 (0 no effect, 100 complete control), 13 to 15 days
[12] = Postemergence, 62 g ai/ha, scale 0 to 100 (0 no effect, 100 complete control)
[13] = Postemergence, 31 g ai/ha, 13 to 15 days
[14] = 1000 g ai/ha, 0 to 100 scale, 0 no effect, 100 complete control
[15] = 8 g ai/ha, postemergence, 0 is no effect, 100 is complete control
[16] = 16 g ai/ha, postemergence, 0 is no effect, 100 is complete control
[17] = 16 g ai/ha, postemergence, visual rating, scale 0 to 100 (0 no effect, 100 complete control), 13 to 15 days
[18] = 16 g ai/ha, scale 0 to 100 (0 no effect, 100 complete control)
[19] = 62 g ai/ha, scale 0 (no effect) to 100 (complete control)
[20] = 125 g ai/ha, scale 0 (no effect) to 100 (complete control)
[21] = Preemergence, 31 g ai/ha, scale 0 to 100, 0 no effect, 100 complete control
[22] = 125 g ai/ha, postemergence, visual rating, scale 0 to 100 (0 no effect, 100 complete control)
[23] = 125 g ai/ha, postemergence, visual rating

N#Cc1cccc(Oc2ncc(F)cn2)c1-n1cc(Br)cn1 [Compound 62]
Plant response rating, Foxtail, Giant (giant foxtail [1]; [10]): 90 | Foxtail, Giant plant response rating (giant foxtail [1]; 500 g ai/ha): 100 | Plant response rating, Crabgrass, Large (large (Lg) crabgrass [2]; [10]): 90 | Plant response rating, Crabgrass, Large (large (Lg) crabgrass [2]; 500 g ai/ha, 0 to 100 scale, 0 no effect, 100 complete control): 100 | Plant response rating (0 to 100), Foxtail, Giant (giant foxtail [3]; 125 g ai/ha, postemergence): 20 | Plant response rating (0 to 100), Foxtail, Giant (giant foxtail [3]; 250 g ai/ha, postemergence): 25 | Plant response rating, Foxtail, Giant (giant foxtail [3]; [11]): 5 | Plant response rating, Foxtail, Giant (giant foxtail [3]; [12]): 10 | Plant response rating (0 to 100), Johnsongrass (johnsongrass [4]; 125 g ai/ha, postemergence): 10 | Plant response rating (0 to 100), Johnsongrass (johnsongrass [4]; 250 g ai/ha, postemergence): 15 | Plant response rating, Johnsongrass (johnsongrass [4]; [11]): 5 | Plant response rating, Johnsongrass (johnsongrass [4]; [12]): 5 | Plant response rating (0 to 100), Nutsedge, Yellow (yellow nutsedge [5]; 125 g ai/ha): 5 | Plant response rating (0 to 100), Nutsedge, Yellow (yellow nutsedge [5]; 250 g ai/ha): 15 | Plant response rating, Nutsedge, Yellow (yellow nutsedge [5]; 31 g ai/ha, 13 to 15 days): 0 | Plant response rating, Nutsedge, Yellow (yellow nutsedge [5]; 62 g ai/ha): 5 | Plant response rating (0 to 100), Soybean (soybean; 125 g ai/ha, postemergence): 95 | Plant response rating (0 to 100), Soybean (soybean; 250 g ai/ha, postemergence): 95 | Plant response rating, Soybean (soybean; [13]): 45 | Plant response rating, Soybean (soybean; Postemergence, 62 g ai/ha): 85 | Plant response rating (0 to 100), Waterhemp (waterhemp; 125 g ai/ha, postemergence): 75 | Plant response rating (0 to 100), Waterhemp (waterhemp; 250 g ai/ha, postemergence): 75 | Plant response rating, Waterhemp (waterhemp; [13]): 40 | Plant response rating, Waterhemp (waterhemp; Postemergence, 62 g ai/ha): 60 | Plant response rating (0 to 100), Chickweed (chickweed; 125 g ai/ha, postemergence): 75 | Plant response rating (0 to 100), Chickweed (chickweed; 250 g ai/ha, postemergence): 90 | Plant response rating, Chickweed (chickweed; [11]): 50 | Plant response rating, Chickweed (chickweed; [12]): 50

CC(=NO)c1cn(-c2c(Br)cccc2Oc2ncc(Cl)cn2)nn1 [Compound 115]
Foxtail, Giant plant response rating (giant foxtail [1]; 1000 g ai/ha): 100 | Plant response rating, Crabgrass, Large (large (Lg) crabgrass [2]; [14]): 90 | Plant response rating (0 to 100), Foxtail, Giant (giant foxtail [3]; [15]): 5 | Plant response rating (0 to 100), Foxtail, Giant (giant foxtail [3]; [16]): 5 | Plant response rating (0 to 100), Johnsongrass (johnsongrass [4]; [15]): 5 | Plant response rating (0 to 100), Johnsongrass (johnsongrass [4]; [16]): 5 | Plant response rating (0 to 100), Nutsedge, Yellow (yellow nutsedge [5]; 8 g ai/ha, 0 is no effect, 100 is complete control): 0 | Plant response rating (0 to 100), Nutsedge, Yellow (yellow nutsedge [5]; 16 g ai/ha, 0 is no effect, 100 is complete control): 0 | Plant response rating (0 to 100), Soybean (soybean; [15]): 5 | Plant response rating (0 to 100), Soybean (soybean; [16]): 10 | Plant response rating (0 to 100), Waterhemp (waterhemp; [15]): 5 | Plant response rating (0 to 100), Waterhemp (waterhemp; [16]): 30 | Plant response rating (0 to 100), Chickweed (chickweed; 4 g ai/ha, postemergence, 0 is no effect, 100 is complete control): 0 | Plant response rating (0 to 100), Chickweed (chickweed; [15]): 5 | Plant response rating (0 to 100), Chickweed (chickweed; [16]): 5

Clc1cnc(Oc2cccc(Br)c2-n2cc(Br)cn2)nc1 [Compound 65]
Foxtail, Giant plant response rating (giant foxtail [1]; 1000 g ai/ha): 100 | Plant response rating, Crabgrass, Large (large (Lg) crabgrass [2]; [14]): 100 | Foxtail, Giant plant response rating (giant foxtail [3]; [17]): 5 | Plant response rating (0 to 100), Foxtail, Giant (giant foxtail [3]; 125 g ai/ha, postemergence): 10 | Plant response rating, Foxtail, Giant (giant foxtail [3]; [11]): 10 | Plant response rating, Foxtail, Giant (giant foxtail [3]; [12]): 10 | Johnsongrass plant response rating (johnsongrass [4]; [17]): 5 | Plant response rating (0 to 100), Johnsongrass (johnsongrass [4]; 125 g ai/ha, postemergence): 5 | Plant response rating, Johnsongrass (johnsongrass [4]; [11]): 5 | Plant response rating, Johnsongrass (johnsongrass [4]; [12]): 5 | Plant response rating (0 to 100), Nutsedge, Yellow (yellow nutsedge [5]; 125 g ai/ha): 15 | Plant response rating, Nutsedge, Yellow (yellow nutsedge [5]; 31 g ai/ha, 13 to 15 days): 5 | Plant response rating, Nutsedge, Yellow (yellow nutsedge [5]; 62 g ai/ha): 5 | Plant response rating (0 to 100), Soybean (soybean; 125 g ai/ha, postemergence): 85 | Plant response rating, Soybean (soybean; [13]): 40 | Plant response rating, Soybean (soybean; Postemergence, 62 g ai/ha): 60 | Plant response rating (0 to 100), Waterhemp (waterhemp; 125 g ai/ha, postemergence): 90 | Plant response rating, Waterhemp (waterhemp; [13]): 75 | Plant response rating, Waterhemp (waterhemp; Postemergence, 62 g ai/ha): 95 | Chickweed plant response rating (chickweed; [17]): 60 | Plant response rating (0 to 100), Chickweed (chickweed; 125 g ai/ha, postemergence): 98 | Plant response rating, Chickweed (chickweed; [11]): 50 | Plant response rating, Chickweed (chickweed; [12]): 70

N#Cc1cn(-c2c(Br)cccc2Oc2ncc(Cl)cn2)nn1 [Compound 116]
Foxtail, Giant plant response rating (giant foxtail [1]; 1000 g ai/ha): 100 | Plant response rating, Crabgrass, Large (large (Lg) crabgrass [2]; [14]): 100 | Galium plant response rating (galium; [18]): 0 | Galium plant response rating (galium; [19]): 100 | Galium plant response rating (galium; [20]): 100 | Plant response rating, Galium (galium; [21]): 100 | Crabgrass, Large plant response rating (large (Lg) crabgrass [6]; [18]): 5 | Crabgrass, Large plant response rating (large (Lg) crabgrass [6]; [19]): 100 | Crabgrass, Large plant response rating (large (Lg) crabgrass [6]; [20]): 100 | Plant response rating, Crabgrass, Large (large (Lg) crabgrass [6]; [21]): 100 | Foxtail, Giant plant response rating (giant foxtail [7]; [18]): 0 | Foxtail, Giant plant response rating (giant foxtail [7]; [19]): 85 | Foxtail, Giant plant response rating (giant foxtail [7]; [20]): 95 | Plant response rating, Foxtail, Giant (giant foxtail [7]; [21]): 10 | Johnsongrass plant response rating (johnsongrass [8]; [18]): 0 | Johnsongrass plant response rating (johnsongrass [8]; [19]): 55 | Johnsongrass plant response rating (johnsongrass [8]; [20]): 70 | Plant response rating, Johnsongrass (johnsongrass [8]; [21]): 25 | Lambsquarters plant response rating (lambsquarters; [18]): 10 | Lambsquarters plant response rating (lambsquarters; [19]): 85 | Lambsquarters plant response rating (lambsquarters; [20]): 100 | Plant response rating, Lambsquarters (lambsquarters; [21]): 95 | Nutsedge, Yellow plant response rating (yellow nutsedge [9]; [18]): 0 | Nutsedge, Yellow plant response rating (yellow nutsedge [9]; [19]): 10 | Nutsedge, Yellow plant response rating (yellow nutsedge [9]; [20]): 40 | Plant response rating, Nutsedge, Yellow (yellow nutsedge [9]; [21]): 5 | Plant response rating (0 to 100), Foxtail, Giant (giant foxtail [3]; [16]): 30 | Plant response rating, Foxtail, Giant (giant foxtail [3]; [22]): 10 | Plant response rating, Foxtail, Giant (giant foxtail [3]; [12]): 40 | Plant response rating (0 to 100), Johnsongrass (johnsongrass [4]; [16]): 0 | Plant response rating, Johnsongrass (johnsongrass [4]; [22]): 15 | Plant response rating, Johnsongrass (johnsongrass [4]; [12]): 0 | Plant response rating (0 to 100), Soybean (soybean; [16]): 15 | Plant response rating, Soybean (soybean; [23]): 95 | Plant response rating, Soybean (soybean; Postemergence, 62 g ai/ha): 60 | Plant response rating (0 to 100), Waterhemp (waterhemp; [16]): 65 | Plant response rating, Waterhemp (waterhemp; [23]): 95 | Plant response rating, Waterhemp (waterhemp; Postemergence, 62 g ai/ha): 80 | Plant response rating (0 to 100), Chickweed (chickweed; [16]): 40 | Plant response rating, Chickweed (chickweed; [22]): 80 | Plant response rating, Chickweed (chickweed; [12]): 55
